The experiment has as its target T1, Or22a/Orco (Drosophila melanogaster, UniProt P81909).
T1 construct: his-tag; made in house; host or cells: baculovirus-infected Sf9 cells
T1 sequence (P81909 1-397): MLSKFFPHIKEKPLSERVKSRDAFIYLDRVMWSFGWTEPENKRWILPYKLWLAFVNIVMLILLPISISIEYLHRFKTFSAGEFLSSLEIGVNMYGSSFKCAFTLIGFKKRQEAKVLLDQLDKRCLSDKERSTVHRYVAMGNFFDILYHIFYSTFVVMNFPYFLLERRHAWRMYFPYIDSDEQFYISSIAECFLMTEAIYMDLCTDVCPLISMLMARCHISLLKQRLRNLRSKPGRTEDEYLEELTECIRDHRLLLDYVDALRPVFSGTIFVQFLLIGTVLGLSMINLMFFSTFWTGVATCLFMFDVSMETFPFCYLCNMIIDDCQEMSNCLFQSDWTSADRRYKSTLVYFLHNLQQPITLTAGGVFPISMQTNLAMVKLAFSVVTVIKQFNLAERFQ
T1 sequence (Q9VNB5 1-486 partner): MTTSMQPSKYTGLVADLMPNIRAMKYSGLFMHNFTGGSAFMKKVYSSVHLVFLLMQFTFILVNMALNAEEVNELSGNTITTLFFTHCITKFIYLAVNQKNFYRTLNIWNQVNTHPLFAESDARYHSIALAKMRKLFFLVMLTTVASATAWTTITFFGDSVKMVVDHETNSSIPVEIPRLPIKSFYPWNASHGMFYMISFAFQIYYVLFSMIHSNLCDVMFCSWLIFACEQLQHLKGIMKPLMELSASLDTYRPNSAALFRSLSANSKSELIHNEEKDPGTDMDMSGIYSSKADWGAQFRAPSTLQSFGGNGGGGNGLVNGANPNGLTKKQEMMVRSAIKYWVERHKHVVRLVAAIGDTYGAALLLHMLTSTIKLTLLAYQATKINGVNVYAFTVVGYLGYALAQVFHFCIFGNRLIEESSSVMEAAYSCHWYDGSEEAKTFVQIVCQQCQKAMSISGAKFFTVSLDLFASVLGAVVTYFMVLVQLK
The experiment in a line: Droplet interface bilayer ion channel recording, Or22a/Orco. The class given is biochemical. As to conditions: DIB, 10 μM ligand, at +/−100 mV, +/−50 mV and −25 mV. The protocol: Bilayers were formed between two droplets formed within a PMMA chamber filled with 1 mg/ml DPhPC in undecane and AR20 silicone oil (1:1 ratio). The first step in this process was to deposit a 50 nl droplet onto the stationary silver electrode positioned at the base of the well; this droplet consisted of an aqueous solution containing 300 mM NaCl, 10 mM HEPES (pH 7.4), containing the odorant receptor proteins in proteoliposomes (at a 1:20 dilution from the proteoliposome preparation), […] The second droplet was mounted onto a second silver electrode which was held in the oil and lipid mixture using a YOU-3 manipulator (Narishige, Japan). […] Once the droplets were in contact a bilayer formed spontaneously within 1 minute (as determined by visual assessment and an increase in the bilayer capacitance as measured with a capacitance voltage protocol using the Pico2 amplifier). Insertion of an active channel was determined by a change in current while clamping the voltage at 50 mV. […]
Currents were recorded with a Pico2 or an eONE-HS amplifier (Tecella, USA and Elements, Italy, respectively) with built-in digitizers, operating in gap-free acquisition mode at a sampling frequency of 20 kHz, and using a 0.8 or 1.5 kHz low pass filter. […]
Data were analysed using ANA (Dr Pusch, Genoa), EDR (Elements, Italy) and WinWCP (Dr Dempster, University of Strathclyde). […]

Ion channel activity data for one compound are collected here from US20210255184A1, “Biosensor Device and Methods” (The New Zealand Institute for Plant and Food Research …, priority 2018, published 2021).

For `CCCCCC(=O)OC` [methyl hexanoate], the ion channel activity entry is reported as “ion channel activity is observed”.
